Measured values as given in patent publication US6955921B2, “Trypsin substrate and diagnostic device, and method of using same” (Bayer Corporation, priority 2001, dated 2005).
“And” between values parts separate entries of the source, which are not always exact repeats. Equal entries are not always repeated.

Key:
[1] = biological target: T1, Bovine Pancreatic Trypsin (Bos taurus, UniProt P00760); experiment: Dry-phase analytical element for trypsin detection, fluorescence under 365 nm UV; assay type: biochemical; settings: within one minute
T1 construct: purchased Calbiochem 6502; host or cells: bovine pancreas
T1 sequence (P00760 24-246): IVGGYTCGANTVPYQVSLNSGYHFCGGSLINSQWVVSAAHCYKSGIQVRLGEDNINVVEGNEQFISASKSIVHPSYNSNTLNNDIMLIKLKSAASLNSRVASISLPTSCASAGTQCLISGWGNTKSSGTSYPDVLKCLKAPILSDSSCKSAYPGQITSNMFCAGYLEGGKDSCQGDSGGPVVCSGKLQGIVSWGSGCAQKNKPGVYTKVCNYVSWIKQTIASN
Procedure: (§1) Reagent strips were made according to the following procedure: Filter paper (240 C grade from Ahlstrom Inc.) was saturated with the first dip solution and dried at ambient temperature for 2 hours, then at 110° C. for 5 minutes. The resultant paper was saturated with the second dip solution and dried for about 1 minute at 60° C. to form the completed, white reagent paper. The paper was then cut into pads, which were 0.25 inch×0.25 inches square.
(§2) A. Composition of the First Dip:
• a. Water (24.55 mL) • b. Ethylene glycol bis (β-aminoethyl ether) N,N,N′,N′-tetra-acetic acid (EGTA) (0.06 g) • c. Plasdone (PVP K30 from Sigma-Aldrich) (0.876 g) • d. MgSO4 (1.08 g) B. Composition of the Second Dip: • a. Acetone (9.3 mL) • b. Acetic acid (0.108 mL) • c. Example 5 trypsin substrate (7-(Nα-tosyl-NG-nitro-L-argininyloxy)-4-methylcoumarin, 5.0 mg)
Identical pads were separately wetted with 25 μL portions of two different test solutions and viewed under long wavelength (365 nm) ultraviolet light illumination. One test solution was 50 mM pH=7 phosphate buffer (control solution) and the second was 50 mM pH=7 phosphate buffer containing 10,000 U/mL of bovine pancreatic trypsin (test solution).

[2] = biological target: T2, trypsin (Bos taurus, UniProt P00760); experiment: Modified liquid assay with reagent pads, rate of fluorescent emission increase; assay type: biochemical, bovine; settings: pH=7 buffer, excitation 335 nm
T2 sequence (P00760 24-246): T1 sequence (P00760 24-246)
Procedure: Trypsin concentrations may be instrumentally determined with the reagent pads in a modified liquid assay. Three reagent pads are extracted with 2.0 mL of 50 mM pH=7 buffer containing 0-20 u/mL of trypsin. Fluorescent emission at 385 nm is measured with a Perkin-Elmer Model LS-5 fluorescence spectrophotometer using excitation at 335 nm, and is reported in luminescence units (LU). The rate of increase of emission at 385 nm was determined graphically from the plot of LU vs. time output by the instrument.

[3] = biological target: T1, Bovine Pancreatic Trypsin; experiment: Dry-phase analytical element (reagent strip) for UTI measurement, decode from reflectance; assay type: biochemical; settings: reflectance at 15 and 60 seconds; for decode, Negative Sample: Negative Sample = Water, substrate 1.25 mM in second dip; for decode, Positive Sample: Positive Sample = Water with 200 IU/mL urine trypsin inhibitor (ulinastatin)
Procedure: Reagent strips were made according to the following procedure: Filter paper (240 C grade from Ahlstrom Inc.) was saturated with the first dip solution and dried for 2 minutes at 80° C. and 4 minutes at 60° C. The resultant paper was then saturated with the second dip solution and dried for 6 minutes at 50° C. to form the completed reagent paper. Adhesive ([…] from 3M Inc.) was applied to the reagent paper and it was affixed to a polystyrene handle in the form of pads, which were 0.20 inch×0.20 inches square. A. Composition of the First Dip: • a. Water • b. Bicine Buffer (600 mM) • c. Ethylene glycol bis (β-aminoethyl ether) N,N,N',N'-tetra-acetic acid (EGTA) (5.1 mM) • d. Plasdone (PVP K30 from Sigma-Aldrich) (1.75% by weight) • e. MgSO4 (660 mM) • f. Bovine Pancreatic Trypsin (Calbiochem Cat. No. 6502) (272 units/mL) • g. Adjust to pH 8.00±0.02 with 1N NaOH. B. Composition of the Second Dip: • a. Acetone • b. […] KOK-10071 polymer (from Bayer Corporation) (0.1% by weight) Data were obtained by dipping the strips into the samples set out in Table 1 and placing them in a […] 50 spectrometer from Bayer Diagnostics to collect data at 15 and 60 seconds after dipping. Decode values were calculated using the equation: decode={[(B15+G15)-(B60+G60)]/(B15+G15)}*1000 Where: • B15 is the reflectance of the blue wavelength at 15 seconds, • B60 is the reflectance of the blue wavelength at 60 seconds, • G15 is the reflectance of the green wavelength at 15 seconds, and • […] is the reflectance of the green wavelength at 60 seconds.

[4] = biological target: T1, Bovine Pancreatic Trypsin; experiment: Dry-phase analytical element for trypsin detection, colour with MMBD diazonium salt; assay type: biochemical; settings: within one minute
Procedure: as §1, §2
• a. Water (25.0 mL) • b. Ethylene glycol bis (β-aminoethyl ether) N,N,N′,N′-tetra-acetic acid (EGTA) (0.06 g) • c. Plasdone (PVP K30 from Sigma-Aldrich) (0.438 g) • d. MgSO4 (1.08 g) B. Composition of the Second Dip: • a. Acetone (7.75 mL) • b. Example 3 trypsin substrate (4-(Nα-tosyl-NG-nitro-L-argininyloxy)-2-phenyl-5H-thiazole, 3.1 mg) • c. 2-Methoxy-4-morpholinobenzene diazonium chloride, zinc chloride double salt (MMBD) (diazonium coupling agent) (2.5 mg)
Identical pads were separately wetted with 25 μL portions of two different test solutions. One test solution was 50 mM pH=8 phosphate buffer (control solution) and the second was 50 mM pH=8 phosphate buffer containing 10,000 U/mL of bovine pancreatic trypsin (test solution).

Cc1ccc(S(=O)(=O)N[C@@H](CCCNC(=N)N[N+](=O)[O-])C(=O)Oc2ccc3c(C)cc(=O)oc3c2)cc1 [Example 5, 7-(Nα-tosyl-NG-nitro-L-argininyloxy)-4-methylcoumarin]
pad fluorescence, test solution ([1]; 50 mM pH=7 phosphate buffer containing 10,000 U/mL bovine pancreatic trypsin): fluorescing brightly | pad fluorescence, control solution ([1]; 50 mM pH=7 phosphate buffer without trypsin): remained dull and non-fluorescent | Rate of 385 nm emission increase ([2]; Trypsin concentration 0 U/mL): 0.36 LU/mm | Rate of 385 nm emission increase ([2]; Trypsin concentration 5 U/mL): 1.21 LU/mm and 2.35 LU/mm | Rate of 385 nm emission increase ([2]; Trypsin concentration 10 U/mL): 2.38 LU/mm and 2.08 LU/mm | Rate of 385 nm emission increase ([2]; Trypsin concentration 20 U/mL): 3.75 LU/mm

Cc1ccc(S(=O)(=O)N[C@@H](CCCNC(N)=N[N+](=O)[O-])C(=O)Oc2c[nH]c(-c3ccccc3)c2)cc1 [Example 1, 3-(Nα-tosyl-NG-nitro-L-argininyloxy)-5-phenylpyrrole]
decode, Negative Sample [3]: 474 | decode, Positive Sample [3]: 212

Cc1ccc(S(=O)(=O)N=C(N)NCCC[C@H](NS(=O)(=O)c2ccc(C)cc2)C(=O)Oc2c[nH]c(-c3ccccc3)c2)cc1 [Example 4, 3-(Nα-tosyl-NG-tosyl-L-argininyloxy)-5-phenylpyrrole]
decode, Negative Sample [3]: 61 | decode, Positive Sample [3]: 30

Cc1ccc(S(=O)(=O)N[C@@H](CCCNC(N)=N[N+](=O)[O-])C(=O)Oc2csc(-c3ccccc3)n2)cc1 [Example 3, 4-(Nα-tosyl-NG-nitro-L-argininyloxy)-2-phenyl-5H-thiazole]
pad colour, test solution ([4]; 50 mM pH=8 phosphate buffer containing 10,000 U/mL bovine pancreatic trypsin): turned blue | pad colour, control solution ([4]; 50 mM pH=8 phosphate buffer without trypsin): remained white

Cc1ccc(S(=O)(=O)NC(CCCN=C(N)N[N+](=O)[O-])C(=O)Oc2c[nH]c3ccccc23)cc1 [Example 2, 3-(Nα-tosyl-NG-nitro-L-argininyloxy)indole]
decode, Negative Sample [3]: 422 | decode, Positive Sample [3]: 168
